Data from patent US7795240B1, “Nonreducing beta-glucan derivative” (Asahi Kasei Chemicals Corporation, priority 2003, dated 2010).

Legend:
Format in all cases: physicochemical
[1] = storage stability test of an equivalent mixture with L-arginine (degree of whiteness, coloration); settings: for appearance (color) after storage / decrease ratio in degree of whiteness: 40° C., 2 weeks; for appearance (color) after storage / decrease ratio in degree of whiteness / degree of whiteness after the test: 75% RH, airtight; for degree of whiteness after the test: after 2 weeks at 40° C.; for degree of whiteness at the onset: at onset/initiation of the storage test
Text: In a β-glucan derivative according to the present invention, a non-reducing end needs not to be bound to all reducing ends. A non-reducing end may be bound to reducing ends to the extent that an active ingredient such as a medicament or the like having an amino group is stably present. The conversion rate of a reducing end of the β-glucan into a non-reducing end is preferably 0.1 mol % or more. Whether an active ingredient is present in a stable state can be readily checked by an observation based on degree of coloration in a storage stability test in a condition that is performed by mixing an active ingredient and a β-glucan derivative in equivalent amounts and stored the mixture at 40° C. under 75%. Since it has a reducing end, β-glucan is known to initiate the Maillard reaction with an active ingredient having a terminal amino group to form an amino-carbonyl bond and produce color. However, a β-glucan derivative according to the present invention has an advantageous effect in that since the reducing end is inactivated by a non-reducing sugar, no coloring reaction takes place. The effect of the present invention is particularly effective for an active ingredient having a primary amine.
Whether fructose was bound was confirmed based on an increase of a peak in a mass spectrum and a storage stability test of an equivalent mixture of the obtained transglucosylated product and L-arginine contained at 40° C. and 75% RH, airtight for 2 weeks. A decrease ratio in degree of whiteness was 2% (it was 99% at the onset and 97% after the test).

[2] = disintegration time of molded cylindrical product (Japanese Pharmacopeia disintegration test); settings: 37° C., pure water
Protocol: (§1) The hardness of the molded cylindrical product thus obtained was measured by a Schleuniger hardness tester type 6D (Trademark, manufactured by FREUND Corporation). More specifically, a load pressure was applied to the molded cylindrical product or a tablet in the direction of the diameter to break it. The weight at the moment was measured. The hardness was represented by an average value of 10 samples. Furthermore, the disintegration time of the molded cylindrical product was determined in accordance with a general test method, a disintegration test method for tablets specified in the Japanese Pharmacopeia, 14th revision, by use of a disintegration tester (Toyama Sangyo Co., Ltd., Trade name: NT-40HS type with a disk), at 37° C. in pure water. The disintegration time was represented by an average of 6 tablets

[3] = hardness of molded cylindrical product (Schleuniger hardness tester type 6D)
Protocol: as §1

disintegration time of the molded cylindrical product ([2]; compression pressure 35 kN) [s] | hardness of the molded cylindrical product ([3]; compression pressure 35 kN) [N] | Substance | appearance (color) after storage [1] | decrease ratio in degree of whiteness [1] [%] | degree of whiteness after the test [1] [%] | degree of whiteness at the onset [1] [%] | disintegration time of the molded cylindrical product ([2]; compressed at 25 kN, with disk, average of 6) [s] | hardness of the molded cylindrical product ([3]; compressed at 25 kN, φ8 mm, average of 10 samples) [N]
– | – | transglucosylated cellotriose [Example 1] | White color in appearance was maintained | 2 | 97 | 99 | 58 | 70
300 | 80 | transglucosylated cellobiose [Comparative Example 2] | White color in appearance was maintained | 3 | 96 | 99 | – | –
